Data set [1] deals with U2OS cells. In words: EdU/PI cell cycle assay. It is filed as cell-based. As to conditions: 72 h; for cell cycle progression: 0.5 μM; for cell cycle profile: 1 μM. The protocol:
Given these promising findings, we further investigated the specificity of MU262 and MU876 and potential short-term cytotoxicity. To mirror the treatment duration used in BIR and HR assays, U2OS cells were exposed to the inhibitors or siRNA for 3 days.
U2OS WT cells (300,000) were seeded in a 6-well plate; a subset of them was treated with either control siRNA or siRNA targeting MUS81. After adhesion, cells were treated with the respective inhibitors for 72 h during which CPT ([…], Sigma-Aldrich) was added for the last 16 h and 10 μM EdU (Sigma-Aldrich) was added for the last 1 h. Cells were then harvested and stained by using the Click-iT EdU Alexa Fluor 647 Flow Cytometry Assay Kit (Thermo Fisher Scientific). Finally, cells were resuspended in 1xPBS containing 5 μg/mL of propidium iodide (PI) and analyzed using a BD FACSVerse flow cytometer (Becton Dickinson) and FlowJo software (BD Life Sciences). At least 20,000 cells were used for each measurement, and experiments were performed in duplicates.

Data set [2] deals with U2OS cells. Briefly: Colony formation assay (CFA). It is filed as cell-based. As to conditions: 10–12 days. The protocol: 6 MUS81 inhibition induces persistent DNA damage leading to reduced cell survival. (A) U2OS cells were treated with DMSO, cisplatin as a positive control, control or MUS81-targeting siRNA, MU262, MU876, and their negative control counterparts at the indicated concentrations for 72 h. Representative images show staining of a DNA damage marker γH2AX in green with counterstaining of DAPI in blue. The concentration of all inhibitors shown in (A) is 2.5 μM. (B) DNA damage was assessed by quantifying γH2AX foci per nucleus from (A) using CellProfiller software. The graph represents percentage (%) of cells with ≥20 γH2AX foci per nucleus across different concentrations of inhibitors. n = 3; error bars represent s.d. (C) Indicated number of U2OS cells was transfected with a nontargeting siRNA (siCon) or MUS81-targeting siRNA (siMUS81) seeded for a CFA. […] (D) Quantification of (C), error bars represent s.d.; ****p <0.0001 (unpaired, two-tailed t-test). […] (F) Quantification of (E) using a nonlinear regression fitting model. n = 3. […] (H) Quantification of (G) using a nonlinear regression fitting model. n = 3.
Cells were trypsinized, plated at the desired density in 6-well plates for colony forming assay, and then incubated for 10 days. […] The colonies were then solubilized using 10% acetic acid solution, and absorbance was measured with a plate reader. […]

In another data set the test system is CAL51 WT cells. Briefly: γH2AX foci after cisplatin treatment. It is filed as cell-based. As to conditions: compared to the DMSO controls. The protocol: 7 MUS81 inhibitors synergize with cisplatin to reduce cancer cell viability. (A,B) U2OS cells were treated with DMSO, MU262, or MU876 at the indicated concentrations in combination with a range of cisplatin (0–5 μM) for 96–120 h. Cell viability was assessed by the Cy-Quant assay. The survival was normalized to the DMSO-treated control. Graphs were generated in Graphpad Prism using the nonlinear regression fitting model. n ≥ 3, error bars represent s.d. (C) CAL51 WT cells were treated with DMSO, MU262, or MU876 at the indicated concentrations at each passage over 2 weeks. Cisplatin (12 μM) was added for the last 24 h before harvest. DNA damage was assessed by quantifying γH2AX foci using fluorescence microscopy and CellProfiller software. Data were visualized plotted in R software. Red markers represent the median of γH2AX foci number per nucleus; blue markers represent the percentage of cells with ≥20 γH2AX foci per nucleus. n = 3, error bars represent s.d.; ****p <0.0001 (unpaired, two-tailed t-test). […]
U2OS, CAL51 WT, and CAL51 MUS81^–/– cells (10,000) were seeded in a 96-well plate 24 h before the treatment. […] The γH2AX foci were detected and quantified using CellProfiler (Broad Institute of MIT and Harvard). The analyzed data were plotted in RStudio software using R programming language.

Data set [3] concerns major cytochrome P450 isoforms. Briefly: Cytochrome P450 inhibition. It is filed as in vitro ADME.

Consider two compounds from paper PMC12990037, “Discovery of Two Structurally Distinct Classes of Inhibitors Targeting the Nuclease MUS81 and Enhancing Efficacy of Chemotherapy in Cancer Cells” (Journal of Medicinal Chemistry, 2026).

For the compound `CCc1nn2c(O)c(-c3nc4ccccc4[nH]3)nnc2c1-c1ccc(F)cc1` [Compound 18, 3-(1H-Benzo[d]imidazole-2-yl)-7-ethyl-8-(4-fluorophenyl)pyrazolo[5,1-c][1,2,4]triazin-4-ol], in the data set with U2OS cells [1], the cell cycle progression result was “neither MU262 and MU876 affected the cell cycle progression”; the cell cycle profile result is “mild increase in the S phase”. Besides, the clonogenic cell survival result in the data set on U2OS cells [2] is reported as “significantly decreased cell survival”. The “γH2AX foci following cisplatin treatment” value in the data set with CAL51 WT cells is “significantly reduced the number of γH2AX foci in a concentration-dependent manner”. Besides, in data set [3], the “inhibition of major cytochrome P450 isoforms” value is “do not significantly inhibit major cytochrome P450 isoforms”.
Regarding `Cc1cc(=O)[nH]c(-n2nc(-c3ccccc3)cc2NC(=O)c2cc(-c3ccccc3)on2)n1` [Compound 32, N-(1-(4-Methyl-6-oxo-1,6-dihydropyrimidin-2-yl)-3-phenyl-1H-pyrazol-5-yl)-5-phenylisoxazole-3-carboxamide], in the data set on U2OS cells [1], the cell cycle progression result was “neither MU262 and MU876 affected the cell cycle progression”; the cell cycle profile result was “mild increase in the S phase”. Further, the clonogenic cell survival result in the data set on U2OS cells [2] is “significantly decreased cell survival”. The “γH2AX foci following cisplatin treatment” value in the data set with CAL51 WT cells is given as “significantly reduced the number of γH2AX foci in a concentration-dependent manner”. In addition, in data set [3], the “inhibition of major cytochrome P450 isoforms” value is recorded as “do not significantly inhibit major cytochrome P450 isoforms”.
